Patent publication US11702707B2, “Systems and methods for assessing contamination of drinking water” (priority 2011, dated 2023)

System: HepG2 cells
Assay: FACTORIAL transcription factor signature assay (reporter transcription units) in a test cell system
Type: cell-based, human

| Molecule | most affected reporter transcription units (transcription factor signature) (24 hours after exposure) | also measured |
| --- | --- | --- |
| O=Cc1c2[nH]c3ccccc3c2cc2[nH]c3ccccc3c12 [6-formylindolo-[3,2-b]carbazole] | – | specific pathway shown by fluorescence peak manifestation (transcription factor signature) (HepG2 cells, after 24 hours exposure): Ahryloxane receptor (AhR) |
| [Cl][Cd][Cl] [cadmium dichloride] | – | reporter elements with most pronounced cellular response (transcription factor signature) (24 hours after exposure, 2.5 μM, 0.6 μM, 0.16 μM and 0.04 μM): most pronounced for the metallothionein response element (MRE) and the heat shock-response element (HSE) |
| lipopolysaccharide [endotoxin (lipopolysaccharide, LPS)] | NF-kappaB and Interferon-specific response element (ISRE) | – |
| triphenyltin | cellular heat shock response element (HSE), the peroxisome proliferator activating protein (PPAR) and the oxidative stress-specific RTU, NRF-2/ARE | – |
